Here are results for eight molecules from patent publication US20220354911A1, “TREATMENT OF TUMORS BY A COMBINATION OF AN ONCOLYTIC ADENOVIRUS, A CDK4/6 INHIBITOR AND A FURTHER THERAPEUTICALLY ACTIVE AGENT” (KLINIKUM RECHTS DER ISAR DER TECHNISCHEN UNIVERSITÄT MÜNCHEN, priority 2019, published 2022).

Molecules are shown by their SMILES.

Assay [1] deals with XVir-N-31. Nature of the assay: XVir-N-31 fiber DNA qPCR with BET inhibitors and BET degraders. It is filed as cell-based, Mastadenovirus, Type C, Serotype 5. Particulars: UMUC-3 (MOI 10) and RT112 (MOI 50), 24 hours post infection. The protocol: 3×10^4 UMUC-3 cells and 4×10^4 RT112 cells were seeded in 12 well plates in DMEM and RPMI medium. The following day the cells were pretreated with BETi and BETd. 48 hours post seeding the cells were infected with 10 MOI for UMUC-3 and 50 MOI for RT112 and treated with the indicated concentration of BETi and BETd. After each timepoint (4, 24 hour) the cells were washed once with PBS and 200 μl of SDS DNA Lysis Buffer was added. The cells were incubated with Proteinase K before undergoing a Phenol-Chloroform-Isoamylalcohol purification. The DNA was diluted in DNase free water and the concentration of the DNA was determined using a Nanodrop. For each sample a solution of 15 ng/μl was prepared and a RT-qPCR using 75 ng of DNA and a GoTaq Master mix. Specific Fiber forward and reverse primers were used and for the calculation of the Δ ct value specific Actin primers were used as well. For each sample 3 Fiber and 3 Actin values were measured. The calculation was done in excel and each 24 hours was calculated based on its 4 hours value (initial viral entry, before replication).

For assay [2], the system named is SK-N-MC cells. Description: Cell cycle distribution (propidium iodine) of SK-N-MC cells. It is filed as cell-based. The following applies: 48 hours post treatment, MK-1775 at 500 nM. Here is the method: 48 hours post treatment cells were washed twice took place with PBS (containing RNase A, 100 U/ml). Cells were trypsinized and centrifuged at 1500 rpm, 4° C. for 5 min. Cells are fixed by adding slowly 1 ml of ice-cold 80% Ethanol drop by drop to the pellet and incubated overnight. Staining was performed by adding 1 ml of staining solution (Propidium Iodine, 50 μg/ml) to the cells and incubating 30-60 min at RT with gentle rocking. MK: MK-1775; LY: LY-2835219.

Assay [3] deals with dl703. Nature of the assay: E1A-independent viral DNA replication of dl703 (fiber qPCR). It is filed as cell-based, Mastadenovirus, Type C, Serotype 5. The following applies: UMUC cells, 1 μM CI-1040, 50 MOI dl703, 48 hours post infection. Here is the method: To investigate the differences in replication of dl703 (Mantwill et al. 2013, Journal of Translational Medicine, 11, 216) under different treatment conditions, DNA-replication analysis was performed. 100,000 UMUC cells were seeded in 6-well plates and grown in DMEM medium containing 10% FCS in 5% CO2 conditions at 37° C. 24 hours post seeding cells were treated for 24 hours with 10 μM Lee (Ribociclib), 1 μM CI-1040, 10 μM Nutlin-3a and 10 μM Roscovertine and again after infection adding an appropriate amount of inhibitors to the medium. Infection with 50 MOI dl703 (Mastadenovirus, Type C, Serotype 5 with a 3.2 kb sized deletion in E1 region) took place 24 hours post treatment. After 4 and 48 hours post infection DNA were isolated and qPCR was performed using specific primers for the viral fiber gene. Fiber fwd. 5′-[…]-3′ (SEQ ID NO: 17); Fiber rev. 5′-[…]-3′ (SEQ ID NO: 18).

In assay [4] the test system is Rb, phRB and E2F1. Description: Western blot of UMUC cells treated with cell cycle inhibitors. The assay is classed as cell-based, human. The following applies: 24 hours post-treatment, LEE-011 at 10 μM, MI-1040 at 1 μM. The protocol: Western Blot analysis of UMUC cells treated with indicated concentrations of CI-1040, Roscovitine, Nutlin-3a and LEE011 (Ribociclib). 1×10^6 cells were seeded in 10 cm dishes. 24 hours post-treatment proteins were isolated using 1% SDS buffer, to achieve the disruption of the nuclear membrane. All samples were drawn up several times into a syringe to disrupt the DNA and subsequently centrifuged at 30000 rpm at 4° C. for 30 minutes. The supernatant was transferred to a new reaction tube and directly used for further steps or stored at −80° C. To separate the proteins a sodium dodecyl sulfate polyacrylamide gel electrophoresis was performed. By means of electrophoresis for approximately two hours at 100V at 4° C., 40 μg of total proteins were loaded and probed against specific indicated antibodies.
For orientation: In western blotting, separated proteins are transferred to a membrane and probed.

Assay [5] has as its system UMUC3 cells. Description: Cell cycle analysis (flow cytometry) of UMUC3 cells. The assay is classed as cell-based, human. The following applies: UMUC3, 48 hours; Roscovitine 10 μM, CI-1040 1 μM, Nutlin-3a 10 μM, LEE011 10 μM; 10 MOI dl703. The protocol: FIG. 10 is a bar diagram showing cell cycle distribution in UMUC3 cells, measured 48 hours post treatment, whereby the concentrations of the […] inhibitors was as follows: Roscovitine: 10 μM, CI-1040: 1 μM, Nutlin-3a: 10 μM, and LEE011: 10 μM.
For cell cycle analysis cells were seeded in 6 well plates (2.5×10E4 c/well). 8 hours before infection with dl703, cells were treated with indicated concentration of cell cycle inhibitors. After infection with 10 MOI dl703 cells were again treated for 48 hours. Untreated cells and dl703 infected cells only, served as control. 48h post infection cells were harvest by trypsinization and fixed with 80% ethanol while vortexing. To investigate the cell cycle status, fixed cells were centrifuged 5 min at RT and 300 g and ethanol was aspirated. Cells were resuspended and washed with 1% BSA-PBS (Bovine Serum Albumin) and again centrifuged. Cells were stained with EDU and cell cycle analysis were performed using the Click-iT™ Plus EdU Flow Cytometry Assay Kits, Catalog nos. C10632 from Thermo Fischer. In addition, after 3× times washing with 1% BSA/PBS cells were stained with PI (Propidium Iodine, 50 μg/ml). Measurement was directly performed after staining with a FACScalibur Flow Cytometry System. Data was analyzed with FlowJo software.

Assay [6] relates to T24 cells. Nature of the assay: Potency assay/SRB staining, XVir-N-31, Nutlin-3a and Palbociclib. It is filed as cell-based, human. The following applies: T24, 30 μM Nutlin-3a, 500 nM Palbociclib, four dpi. The protocol:
(§1) Cell killing using XVir-N-31 alone and in combination with small molecule inhibitors was analysed in 12-well plates. […] At 1 hpi, complete medium with Palbociclib was added to the cells pretreated with Palbociclib. To the control as well as to the Nutlin treated cell complete medium without inhibitors was added.
A potency assay using T24 cells was carried out for determining the cell killing effect of XVir-N-31 alone, XVir-N-31 with Nutlin-3a, XVir-N-31 with Palbociclib, and XVir-N-31 with both Nutlin-3a and Palbociclib.
(In SRB staining, fixed cells bind dye roughly in proportion to their protein.)

Assay [7] relates to T24shRB cells. The assay is described as above. The assay is classed as cell-based, human. The following applies: 30 μM Nutlin-3a, 500 nM Palbociclib, four dpi. Here is the method: as §1
The same potency assay as subject to Example 27.2 was carried out using T24shRB cells. T24shRB cells are T24 cells without Rb expression. Such lacking Rb expression was generated by means of lentiviral transfection, wherein the lentivirus coded for shRNA directed to Rb. The lentivirus vector used was pLKO-RB1-shRNA19 (obtained from Addgene, Watertown, Mass. 02472, USA), the sequence of the shRNA was as follows […] (SEQ ID NO: 39). The procedure is also described by Michaud K et al. (Cancer Res. 2010 Apr. 15. 70(8):3228-38).

Assay [8] relates to T24 cells. Description: Potency assay (SRB), XVir-N-31, Palbociclib and PARP inhibitor. It is filed as cell-based. Particulars: Homo sapiens, T-24, read-out: IC-80 value. The protocol: 12,500 T24 cells were seeded per well in 12-well plates and grown over-night in RPMI Medium containing 10% FCS at 37° C. Inhibitor-treatment of cells occurred 24 h past cell seeding and again 1 hour after infection by adding indicated concentration to the medium. Infection of cells took place 24 h past inhibitor-treatment in 250 μl medium without serum. Fixation and SRB-staining took place at 4 days post infection. PD, Palbociclib; PARPi: BMN673.
For SRB staining, the medium was removed by aspiration. Cells were fixed with 1 ml (per well) 10% cold TCA at 4° C. for 1 hour. TCA was removed by aspiration and cell layers were washed 4× with tap water. Cells were stained with 1 ml (per well) 0.5% SRB (sulforhodamine B) in 1% acetic acid for 30 min. Unbound SRB was removed in five washing steps with 1 ml 1% acetic acid/well; after each washing step, acetic acid was removed by aspiration. Plates were air-dried for 2 hrs. To solubilize the SRB stained cells, 200 μl of 10 mM Tris base was added to each well. […] The 96 well plate was loaded into an Elisa-plate reader and absorption of the samples was measured at 560 nm. […]
In order to show the kinetics of a triple therapy of T24 cells using triple therapy comprising XVir-N-31, Palbociclib and a PARP inhibitor (BMN673 (Talazoparib)), a potency assay was carried out and the potency assessed at different points in time. […]

The test system of assay [9] is UMUC-3. The assay is described as above. The assay is classed as cell-based. The following applies: Homo sapiens; UMUC3 cells; read-out: IC-80 value. The protocol: Seeding of UMUC-3: 3000 cells were seeded per well in 12-well plates and grown over-night in DMEM Medium containing 10% FCS at 37° C. Inhibitor-treatment of cell occurred 24 h past seeding and again 1 hour after infection by adding indicated concentration to the medium. Infection of cells took place 24 h past inhibitor-treatment. Fixation and SRB-staining took place at 1-6 days post infection (dpi: days post infection). 160 nM PARPi correspond to the IC-80 value in UMUC3 cells.

Assay [10] relates to T24 and UMUC-3. Nature of the assay: FACS cell cycle analysis, Talazoparib and Palbociclib. The assay is classed as cell-based, human. The following applies: T24 and UMUC-3, 48 hours. The protocol: The influence of the applied small molecule inhibitors at their indicated concentrations on the cell cycle of bladder cancer cell lines T24 and UMUC-3 was analysed via flow cytometry analysis after DNA staining. 5×10^4 cells were seeded in 6-well plates and 24 hours later treated with appropriate inhibitors. Two days later, at approximately 80% confluency, cells were washed with PBS, trypsinized, washed again and fixated with icecold 80% ethanol. For cell cycle analysis, samples were incubated with the DNA-intercalating dye 7-aminoactinomycine D (7-AAD) and measured via FACS analysis. Evaluation of measured data was performed via the software FlowJo.

For assay [11], the system named is 253J. Description: IC50 concentration of PD-0332991. It is filed as cell-based. The following applies: Homo sapiens. Here is the method:
(§2) The class of CDK4/6 inhibitors as subject to Example 5 requires expression of RB. Therefor, three RB positive and two RB negative bladder cancer derived cell lines were used and the cells treated with the combination therapy. Cell lines were pretreated for 24 hours with an IC50 concentration of PD-0332991 (T24: 500 nM, RT112: 2000 nM, 253J: 100 nM) and infected with XVir-N-31 (T24 MOI50, 253J MOI 25, RT112 MOI450). Values are the average of at least 2 independent experiments. Error bars show the standard error. Four dpi, cell viability was measured using SRB assays (a, c). (b, d) Lysates of cells were prepared 3 dpi and a titer test was performed on Hek293 cells. Viral titer is shown as fold change relative to control

The test system of assay [12] is RT112. Description: IC50 concentration of PD-0332991. The assay is classed as cell-based. The following applies: Homo sapiens, RT-112. Here is the method: as §2
Assay [13] relates to T24. Description: IC50 concentration of PD-0332991. It is filed as cell-based. The following applies: Homo sapiens, T-24. Here is the method: as §2

On to `COc1nnc2ccc(N3CCC(c4ccc(OCCN5CCN(C)C(=O)[C@H]5C)cc4)CC3)nn12` [AZD5153], for which the “replication of XVir-N-31” value in assay [1] is reported as “highest”.
On to `CCN1CCN(Cc2ccc(Nc3ncc(F)c(-c4cc(F)c5nc(C)n(C(C)C)c5c4)n3)nc2)CC1` [Abemaciclib], for which the cell cycle result in assay [2] was “no effect”.
In the case of `O=C(NOCC1CC1)c1ccc(F)c(F)c1Nc1ccc(I)cc1Cl` [CI-1040], the “viral DNA replication of dl703” value in [3] is “much lower compared to Ribociclib treated cells”. Further, the “Rb, phRB and E2F1 expression” value in [4] is on record as “induced inhibition”. In addition, in [5], the cell cycle distribution result is “clear G1-arrest”.
For the molecule `C=CCn1c(=O)c2cnc(Nc3ccc(N4CCN(C)CC4)cc3)nc2n1-c1cccc(C(C)(C)O)n1` [MK-1775], the cell cycle entry in [2] is recorded as “increase of cells in G2/M”.
For the molecule `COc1ccc(C2=N[C@@H](c3ccc(Cl)cc3)[C@@H](c3ccc(Cl)cc3)N2C(=O)N2CCNC(=O)C2)c(OC(C)C)c1` [Nutlin-3a], the “Rb, phRB and E2F1 expression” value in assay [4] is “no pronounced effect”. The cell cycle distribution entry in [5] was “only little or no effect on the cell cycle”. For the same molecule, the “cell killing by XVir-N-31” value in [6] was “enhanced cell killing”. Besides, the “killing of Rb-negative cells by XVir-N-31” value in [7] was “not effective”.
In the case of `Cn1ncnc1[C@H]1c2n[nH]c(=O)c3cc(F)cc(c23)N[C@@H]1c1ccc(F)cc1` [PARPi], the IC80 stood at 0.015 µM in [8] and 0.16 µM in assay [9]. In assay [10], the “G1 arrest on addition of Talazoparib” value was “not influenced”.
The term IC50 denotes the midpoint of a concentration-inhibition curve. Regarding `CC(=O)c1c(C)c2cnc(Nc3ccc(N4CCNCC4)cn3)nc2n(C2CCCC2)c1=O` [Palbociclib], the IC50 is 0.1 µM in assay [11], 2 µM in [12] and 0.5 µM in assay [13].
For the molecule `CC[C@H](CO)Nc1nc(NCc2ccccc2)c2ncn(C(C)C)c2n1` [Roscovitine], the “Rb, phRB and E2F1 expression” value in [4] was “no pronounced effect”. Moreover, in assay [5], the cell cycle distribution entry is listed as “slight increase of G2/m arrested cells”.
